Here are results for 5 compounds from ChEMBL document CHEMBL1201862, “PubChem BioAssay data set” (2004).

The source made the active and inactive calls.

Assay [1] concerns Vero. The experiment in a line: West Nile virus cytopathic effect inhibition, cell-based (AID 2419). Type of assay: functional. The following applies: Chlorocebus sabaeus. (Protection from cytopathic effect is a common read-out in antiviral testing.)
Assay [2] is described as follows: A Cell Based Assay for the Identification of Probe candidate Compounds with Anti- Venezuelan Equine Encephalitis virus. [Related pubchem assays: 2409, 2419, 1621, 2238, 2405, 2024, 2065, 2402, 2414, 1635, 1650, 2244 ]. Type of assay: functional.
Assay [3] relates to Vero. Briefly: West Nile virus antiviral activity, cell-based, CPE readout (AID 1621). Type of assay: functional. As to conditions: Chlorocebus sabaeus.
For assay [4], the system named is Vero. Briefly: Vero E6 cell cytotoxicity, SAR follow-up, cytotoxicity control for West Nile virus antiviral project, synthesized analogs (AID 2244). Type of assay: functional. The following applies: Chlorocebus sabaeus.
Assay [5] relates to Vero. Briefly: West Nile virus CPE inhibition, SAR follow-up, cell-based, synthesized analogs (AID 2238). Type of assay: functional. The following applies: Chlorocebus sabaeus.
The test system of assay [6] is Vero. The experiment in a line: cytotoxicity of synthesized analogs in Vero 76, SAR follow-up, cytotoxicity control for West Nile virus antiviral project, Vero 76 cells (AID 2414). The class given is functional. As to conditions: Chlorocebus sabaeus.
The test system of assay [7] is Vero. Briefly: cytotoxicity of synthesized analogs in Vero cells, SAR follow-up, cytotoxicity control for West Nile virus antiviral project, cell-based, set II (AID 2402). Type of assay: functional. The following applies: Chlorocebus sabaeus.
Assay [8] deals with T1, Eukaryotic translation initiation factor 2-alpha kinase 3 (Homo sapiens, UniProt Q9NZJ5). The experiment in a line: Counterscreen assay for PERK inhibitors: Dose response cell-based high throughput screening assay to measure inhibition of PERK at 6 hours. [Related pubchem assays: 1522, 1416 ]. Type of assay: functional. (In general: The purpose of a counterscreen is to sort out artefacts and off-target activity.)
T1 sequence (Q9NZJ5 whole entry): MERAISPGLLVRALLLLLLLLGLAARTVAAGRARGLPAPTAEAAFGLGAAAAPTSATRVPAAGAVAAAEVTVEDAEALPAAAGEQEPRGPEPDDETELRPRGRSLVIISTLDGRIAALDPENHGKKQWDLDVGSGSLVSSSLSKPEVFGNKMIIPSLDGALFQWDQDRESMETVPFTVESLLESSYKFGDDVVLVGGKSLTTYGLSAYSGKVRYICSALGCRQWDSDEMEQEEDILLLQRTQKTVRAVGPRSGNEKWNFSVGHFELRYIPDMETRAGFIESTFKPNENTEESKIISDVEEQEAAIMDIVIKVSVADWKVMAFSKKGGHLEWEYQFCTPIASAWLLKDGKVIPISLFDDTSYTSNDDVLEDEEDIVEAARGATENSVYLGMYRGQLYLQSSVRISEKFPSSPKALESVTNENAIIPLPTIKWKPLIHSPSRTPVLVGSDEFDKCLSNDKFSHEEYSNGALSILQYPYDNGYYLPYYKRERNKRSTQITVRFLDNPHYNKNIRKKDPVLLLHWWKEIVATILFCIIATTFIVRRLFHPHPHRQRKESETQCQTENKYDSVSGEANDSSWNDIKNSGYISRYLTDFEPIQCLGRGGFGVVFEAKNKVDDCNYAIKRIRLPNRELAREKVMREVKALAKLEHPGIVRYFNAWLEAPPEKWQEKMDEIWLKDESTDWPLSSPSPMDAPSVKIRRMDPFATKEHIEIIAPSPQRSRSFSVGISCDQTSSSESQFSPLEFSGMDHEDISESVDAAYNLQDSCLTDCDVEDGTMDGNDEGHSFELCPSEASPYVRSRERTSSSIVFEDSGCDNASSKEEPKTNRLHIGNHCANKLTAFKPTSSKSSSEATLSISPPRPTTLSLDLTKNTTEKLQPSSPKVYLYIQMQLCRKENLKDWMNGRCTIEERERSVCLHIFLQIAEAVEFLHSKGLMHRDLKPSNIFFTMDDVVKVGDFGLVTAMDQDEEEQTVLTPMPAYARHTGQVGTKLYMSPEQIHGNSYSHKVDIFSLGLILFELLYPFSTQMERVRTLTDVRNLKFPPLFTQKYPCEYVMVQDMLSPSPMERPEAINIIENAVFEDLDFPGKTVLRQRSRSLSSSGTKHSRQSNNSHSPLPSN

For assay [9], the target named is T1, Eukaryotic translation initiation factor 2-alpha kinase 3. Briefly: Dose response cell-based high-throughput screening assay to measure PERK inhibition. [Related pubchem assays: 1416 ]. Type of assay: functional.
The target of the next assay is NS3 (Hepatitis C virus, UniProt A3EZJ3). Briefly: PubChem AID 2173. More on the design: species or system Hepacivirus hominis.
For assay [10], the target named is T2, Voltage-gated N-type calcium channel alpha-1B subunit/Amyloid beta A4 precursor protein-binding family A member 1 (Homo sapiens, UniProt Q00975+Q02410). Type of assay: protein assay.
T2 sequence (Q00975 whole entry): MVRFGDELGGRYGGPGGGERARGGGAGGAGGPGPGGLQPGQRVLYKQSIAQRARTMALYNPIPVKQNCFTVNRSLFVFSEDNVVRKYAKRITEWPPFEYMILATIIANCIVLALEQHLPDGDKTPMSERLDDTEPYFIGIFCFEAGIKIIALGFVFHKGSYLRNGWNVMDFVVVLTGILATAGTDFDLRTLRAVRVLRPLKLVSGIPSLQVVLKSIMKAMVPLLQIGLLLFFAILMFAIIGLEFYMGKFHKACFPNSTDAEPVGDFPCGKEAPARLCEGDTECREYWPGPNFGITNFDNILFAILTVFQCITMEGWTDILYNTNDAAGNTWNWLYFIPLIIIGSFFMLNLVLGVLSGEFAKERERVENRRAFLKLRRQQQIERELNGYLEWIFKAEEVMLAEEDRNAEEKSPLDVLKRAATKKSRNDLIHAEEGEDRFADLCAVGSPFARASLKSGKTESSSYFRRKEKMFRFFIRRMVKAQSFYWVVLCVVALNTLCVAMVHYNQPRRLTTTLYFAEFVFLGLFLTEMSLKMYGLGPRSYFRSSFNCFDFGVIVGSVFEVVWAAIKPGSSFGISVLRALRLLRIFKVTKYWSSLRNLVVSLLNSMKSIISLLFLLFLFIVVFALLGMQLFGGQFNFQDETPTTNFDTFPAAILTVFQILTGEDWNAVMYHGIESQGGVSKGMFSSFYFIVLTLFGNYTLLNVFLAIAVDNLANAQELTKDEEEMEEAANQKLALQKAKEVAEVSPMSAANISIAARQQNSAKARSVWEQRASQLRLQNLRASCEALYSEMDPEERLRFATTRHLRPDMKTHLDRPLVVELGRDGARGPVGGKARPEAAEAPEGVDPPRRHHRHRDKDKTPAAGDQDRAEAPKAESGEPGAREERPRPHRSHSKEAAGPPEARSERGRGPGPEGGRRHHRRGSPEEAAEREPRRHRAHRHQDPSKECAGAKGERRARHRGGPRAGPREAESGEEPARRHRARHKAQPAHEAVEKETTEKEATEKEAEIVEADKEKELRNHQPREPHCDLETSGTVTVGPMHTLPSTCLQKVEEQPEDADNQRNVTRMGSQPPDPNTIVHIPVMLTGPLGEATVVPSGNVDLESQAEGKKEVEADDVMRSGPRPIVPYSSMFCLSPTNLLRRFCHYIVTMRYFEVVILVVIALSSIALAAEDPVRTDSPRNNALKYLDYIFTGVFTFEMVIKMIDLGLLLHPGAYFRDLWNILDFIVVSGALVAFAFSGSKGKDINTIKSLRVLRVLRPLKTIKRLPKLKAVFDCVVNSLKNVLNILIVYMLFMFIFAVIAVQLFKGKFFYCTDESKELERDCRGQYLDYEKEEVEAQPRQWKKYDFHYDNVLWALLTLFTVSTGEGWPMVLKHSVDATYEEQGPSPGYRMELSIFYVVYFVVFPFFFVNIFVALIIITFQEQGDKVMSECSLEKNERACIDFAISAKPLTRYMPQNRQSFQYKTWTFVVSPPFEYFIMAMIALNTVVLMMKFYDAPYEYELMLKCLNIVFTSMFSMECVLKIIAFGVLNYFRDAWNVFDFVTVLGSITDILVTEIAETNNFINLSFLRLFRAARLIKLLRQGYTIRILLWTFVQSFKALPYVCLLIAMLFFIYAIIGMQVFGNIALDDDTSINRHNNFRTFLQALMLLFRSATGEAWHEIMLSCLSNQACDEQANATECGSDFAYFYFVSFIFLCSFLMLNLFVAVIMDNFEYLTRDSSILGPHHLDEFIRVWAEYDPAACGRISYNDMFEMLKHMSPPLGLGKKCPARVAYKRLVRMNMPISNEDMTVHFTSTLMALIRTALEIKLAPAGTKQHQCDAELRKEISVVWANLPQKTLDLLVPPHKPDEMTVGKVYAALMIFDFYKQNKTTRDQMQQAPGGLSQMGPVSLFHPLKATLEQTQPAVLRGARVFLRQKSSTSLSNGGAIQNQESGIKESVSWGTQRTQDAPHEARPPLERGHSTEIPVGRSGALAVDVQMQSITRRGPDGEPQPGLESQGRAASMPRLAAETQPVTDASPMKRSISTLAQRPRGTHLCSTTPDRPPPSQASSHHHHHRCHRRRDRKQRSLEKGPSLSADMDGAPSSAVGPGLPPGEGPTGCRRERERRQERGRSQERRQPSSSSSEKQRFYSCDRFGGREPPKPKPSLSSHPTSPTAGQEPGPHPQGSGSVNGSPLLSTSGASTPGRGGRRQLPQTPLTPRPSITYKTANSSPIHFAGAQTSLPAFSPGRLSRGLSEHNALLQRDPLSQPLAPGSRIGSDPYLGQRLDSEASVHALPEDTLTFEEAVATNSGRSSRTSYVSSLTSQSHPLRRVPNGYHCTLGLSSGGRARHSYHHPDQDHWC
T2 sequence (Q02410 whole entry): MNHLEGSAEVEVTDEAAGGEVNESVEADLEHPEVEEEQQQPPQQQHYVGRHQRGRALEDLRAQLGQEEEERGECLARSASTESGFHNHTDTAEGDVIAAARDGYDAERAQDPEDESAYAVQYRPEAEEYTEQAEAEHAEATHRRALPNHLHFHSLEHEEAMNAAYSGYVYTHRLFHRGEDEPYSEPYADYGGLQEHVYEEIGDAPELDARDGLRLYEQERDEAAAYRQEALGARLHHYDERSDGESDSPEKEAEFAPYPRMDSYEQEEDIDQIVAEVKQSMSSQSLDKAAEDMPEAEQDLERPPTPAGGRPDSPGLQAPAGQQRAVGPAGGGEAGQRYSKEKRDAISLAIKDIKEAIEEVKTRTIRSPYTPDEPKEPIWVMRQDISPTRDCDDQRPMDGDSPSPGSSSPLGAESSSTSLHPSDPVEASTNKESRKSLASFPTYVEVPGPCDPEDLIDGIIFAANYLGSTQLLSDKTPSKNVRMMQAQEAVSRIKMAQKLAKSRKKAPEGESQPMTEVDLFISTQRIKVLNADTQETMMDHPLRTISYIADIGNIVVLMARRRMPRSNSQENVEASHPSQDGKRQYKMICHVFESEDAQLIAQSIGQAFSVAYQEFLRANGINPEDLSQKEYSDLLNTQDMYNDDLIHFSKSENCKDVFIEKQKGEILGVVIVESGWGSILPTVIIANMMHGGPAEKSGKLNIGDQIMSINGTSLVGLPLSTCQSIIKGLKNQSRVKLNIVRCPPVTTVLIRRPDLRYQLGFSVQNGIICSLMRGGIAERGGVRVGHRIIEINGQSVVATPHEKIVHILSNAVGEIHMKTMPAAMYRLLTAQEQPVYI
Assay [11] concerns the target T2, Voltage-gated N-type calcium channel alpha-1B subunit/Amyloid beta A4 precursor protein-binding family A member 1. Briefly: disruptors of Mint-PDZ/N-type channel peptide interaction – biochemical, HTRF, SAR follow-up (AID 2489). The class given is functional.
The target is the same in assay [12]. The class given is protein assay. This is another data set of the same source.
The target in a further assay is Estrogen receptor beta (Homo sapiens, UniProt Q92731). The experiment in a line: ERβ–SRC-3 coactivator interaction inhibitors, confirmation, orthogonal assay, biochemical, ELISA, streptavidin-HRP readout (AID 1060). Background: In an ELISA, binding on a coated surface is turned into a signal by an enzyme label.
The target in assay [13] is T3, Tyrosine-protein phosphatase non-receptor type 7 (Homo sapiens, UniProt P35236).
T3 sequence (P35236 whole entry): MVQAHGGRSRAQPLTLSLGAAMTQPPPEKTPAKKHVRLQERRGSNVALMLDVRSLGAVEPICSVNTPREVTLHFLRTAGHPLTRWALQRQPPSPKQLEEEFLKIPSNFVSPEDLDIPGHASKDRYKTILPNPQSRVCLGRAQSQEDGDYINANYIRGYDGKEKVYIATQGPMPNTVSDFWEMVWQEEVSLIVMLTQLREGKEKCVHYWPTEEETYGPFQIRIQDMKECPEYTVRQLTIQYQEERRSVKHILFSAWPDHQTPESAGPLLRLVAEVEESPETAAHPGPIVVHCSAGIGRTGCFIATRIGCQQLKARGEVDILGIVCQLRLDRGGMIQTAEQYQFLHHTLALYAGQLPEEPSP
Briefly: redox-dependent HePTP inhibition, mechanism study, biochemical, fluorescence (AID 2068). The class given is functional.

Assay [14] has as its target Acyl-homoserine lactone acylase PvdQ (Pseudomonas aeruginosa (strain LESB58), UniProt Q9I194). Briefly: P. aeruginosa PvdQ acylase inhibitors, dose response, biochemical, fluorescence, plate reader and imaging, cherry-picks (AID 493231).
Assay [15] can be described thus: inhibitors of intracellular T. cruzi replication, confirmation, NIH3T3 host cells, beta-gal luminescence (AID 2044).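 Also: intracellular parasites grown in NIH/3T3 mouse fibroblasts as host cells; luminescent beta-galactosidase reporter signal from transgenic T. cruzi replicating inside host cells; inhibitors lower the luminescence signal.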 Type of assay: functional, cell-based.
Assay [16] deals with T4, Rac GTPase-activating protein 1 (Homo sapiens, UniProt Q9H0H5).
T4 sequence (Q9H0H5 whole entry): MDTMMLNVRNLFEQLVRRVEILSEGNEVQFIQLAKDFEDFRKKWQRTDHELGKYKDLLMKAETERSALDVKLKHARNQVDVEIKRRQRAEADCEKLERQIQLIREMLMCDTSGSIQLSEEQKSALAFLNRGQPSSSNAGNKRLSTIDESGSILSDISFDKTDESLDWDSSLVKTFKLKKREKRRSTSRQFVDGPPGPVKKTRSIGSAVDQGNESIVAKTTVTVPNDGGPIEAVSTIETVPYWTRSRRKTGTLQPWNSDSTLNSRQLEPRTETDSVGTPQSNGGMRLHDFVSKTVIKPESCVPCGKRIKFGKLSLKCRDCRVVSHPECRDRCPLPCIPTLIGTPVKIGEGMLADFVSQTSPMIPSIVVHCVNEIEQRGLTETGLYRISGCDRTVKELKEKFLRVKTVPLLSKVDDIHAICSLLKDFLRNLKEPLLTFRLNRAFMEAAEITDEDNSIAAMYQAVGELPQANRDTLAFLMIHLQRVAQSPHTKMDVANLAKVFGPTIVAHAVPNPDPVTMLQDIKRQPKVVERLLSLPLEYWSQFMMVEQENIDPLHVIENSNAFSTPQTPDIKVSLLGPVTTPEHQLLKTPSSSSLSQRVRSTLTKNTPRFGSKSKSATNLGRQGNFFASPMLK
The experiment in a line: MgcRacGAP GTPase-activating activity inhibitors, confirmation, biochemical, ADP Hunter fluorescence, primary and confirmatory (AID 624330). The class given is functional.

Assay [17] has as its system Vero. The experiment in a line: Vero E6 cell cytotoxicity, dose response, cytotoxicity control (AID 540298). The class given is functional. As to conditions: Chlorocebus sabaeus.
A further assay concerns HeLa. The experiment in a line: Cytotoxicity counterscreen assay for transcriptional activators of heat shock protein 70 (Hsp70). [Related pubchem assays: 1203, 1252 ]. Type of assay: functional. As to conditions: Homo sapiens.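 Also: cells exposed to compound for 16 hours before readout.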
In assay [18] the test system is HEK293. The experiment in a line: NOD2 signaling inhibitors in MDP-stimulated cells, cell-based, uHTS, luminescence (AID 2001). The class given is functional. As to conditions: Homo sapiens.
The target of another assay is X-box-binding protein 1 (Homo sapiens, UniProt P17861). Type of assay: functional, Cricetulus griseus.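 Also: confirmatory dose-response counter-screen serving a CHOP assay.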
Sequence of X-box-binding protein 1 (P17861 whole entry): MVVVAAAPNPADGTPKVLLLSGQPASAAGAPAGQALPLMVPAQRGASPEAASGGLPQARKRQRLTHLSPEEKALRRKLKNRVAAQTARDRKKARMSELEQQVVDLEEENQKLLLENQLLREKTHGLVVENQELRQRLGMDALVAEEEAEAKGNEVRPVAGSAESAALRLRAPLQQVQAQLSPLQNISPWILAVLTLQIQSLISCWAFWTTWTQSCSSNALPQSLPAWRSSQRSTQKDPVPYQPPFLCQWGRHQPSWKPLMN
The nature of assay [19]: HeLa cell cytotoxicity, dose response, cytotoxicity control for MgcRacGAP inhibitor project (AID 624300). The class given is functional.
In another assay the target is Nonstructural protein 1 (Influenza A virus, UniProt Q194T2). Type of assay: functional, Influenza A virus (A/California/07/2009(H1N1)).
In assay [20] the test system is MDCK. Briefly: MDCK cell cytotoxicity, dose response, cytotoxicity control (AID 540296). Type of assay: functional. The following applies: Canis lupus familiaris.
The nature of assay [21]: cytotoxicity toward NIH3T3 fibroblasts, dose response, counter-screen, cell-based, ATP luminescence, mouse fibroblasts (AID 2010).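 Also: cells exposed to compound for about 90 hours before reading.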 Type of assay: functional.
In assay [22] the target is Sphingosine 1-phosphate receptor 1 (Homo sapiens, UniProt P21453). The class given is functional.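 Also: Tango beta-arrestin reporter U2OS cells stimulated with S1P near its EC80; inhibitor potency meaning antagonism of receptor activation by the natural agonist.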
Sequence of Sphingosine 1-phosphate receptor 1 (P21453 whole entry): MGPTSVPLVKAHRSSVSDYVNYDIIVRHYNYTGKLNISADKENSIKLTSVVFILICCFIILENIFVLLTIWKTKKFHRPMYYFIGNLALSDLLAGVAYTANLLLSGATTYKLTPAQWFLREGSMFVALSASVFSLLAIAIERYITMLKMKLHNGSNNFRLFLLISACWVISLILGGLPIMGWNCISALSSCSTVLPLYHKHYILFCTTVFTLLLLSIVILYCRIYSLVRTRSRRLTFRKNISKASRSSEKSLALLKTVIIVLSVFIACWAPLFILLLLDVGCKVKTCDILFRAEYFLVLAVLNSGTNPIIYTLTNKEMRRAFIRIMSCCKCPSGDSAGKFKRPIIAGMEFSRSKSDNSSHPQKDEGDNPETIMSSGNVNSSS
Assay [23] deals with HEK293. The experiment in a line: cells. The class given is functional, cell-based. As to conditions: Homo sapiens.
The subject of assay [24] is HEK293. Briefly: cells. As to conditions: Homo sapiens. The class given is functional, cell-based. The source holds these as a separate data set.
Assay [25] addresses G-protein coupled receptor 55 (Homo sapiens, UniProt Q9Y2T6). Briefly: GPR55 agonists via beta-arrestin recruitment, primary screen, imaging, U2OS cells, beta-arrestin-GFP redistribution (AID 1961). Type of assay: functional.
Assay [26] addresses Neurotensin receptor type 1 (Homo sapiens, UniProt P30989). The class given is functional.
For assay [27], the system named is HEK293. The experiment in a line: NOD1 signaling inhibitors, primary screen, cell-based, luminescence, uHTS (AID 1578). The following applies: Homo sapiens. The class given is functional.
Assay [28] concerns the target T5, Sphingosine 1-phosphate receptor 4 (Homo sapiens, UniProt O95977).
T5 sequence (O95977 whole entry): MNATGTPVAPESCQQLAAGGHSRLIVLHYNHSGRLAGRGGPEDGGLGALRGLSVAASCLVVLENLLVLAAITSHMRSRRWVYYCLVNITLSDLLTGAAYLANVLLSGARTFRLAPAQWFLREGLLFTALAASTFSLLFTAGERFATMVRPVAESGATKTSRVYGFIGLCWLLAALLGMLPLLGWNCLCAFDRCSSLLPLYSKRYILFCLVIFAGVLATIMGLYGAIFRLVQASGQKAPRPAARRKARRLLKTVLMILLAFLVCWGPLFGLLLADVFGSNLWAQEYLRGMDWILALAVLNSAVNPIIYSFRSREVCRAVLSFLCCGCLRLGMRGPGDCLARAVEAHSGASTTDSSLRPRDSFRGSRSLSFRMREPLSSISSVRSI
The experiment in a line: Fluorescence dose response cell-based high throughput screening assay for antagonists of the Sphingosine 1-Phosphate Receptor 4 (S1P4). [Related pubchem assays: 1524 (Confirmation in triplicates.), 1510 (Primary screen.)]. The class given is functional.

The test system of assay [29] is MDCK. Briefly: antiviral activity against H1N1 influenza, dose response, cell-based, strain KY136 (AID 540257). Type of assay: functional. The following applies: Canis lupus familiaris.

Take `CN(C)CCCN=C(S)N1CCN(c2nc(-c3ccccc3)cs2)CC1`: the half-inhibitory concentration (IC50) was > 12.5 µM (active) with Vero [1], 6.88 µM (active) in [2], 17.5 µM (active) with Vero [3] and > 20 µM (active) with Vero [5]. The results for the CC50 with Vero [4], in the assay with Vero [6] and in the assay with Vero [7] were 25 µM (active), 13.9 µM (active) and 15.1 µM (active), respectively.

For the compound `CCS(=O)(=O)N1CCC(C(=O)NCc2ccc(F)cc2)CC1`, the EC50 in assay [8] and in assay [9] was > 55.7 µM (not active) each time.

For `O=C(NC1CCCC1)c1ccc2nc(-c3ccco3)c(-c3ccco3)nc2c1`, the IC50 on NS3 was 5.49 µM (active); in assay [10], 26 µM (active); in assay [11], > 56.8 µM (inactive); in assay [12] it was 2.28 µM (active); at Estrogen receptor beta, 478 nM (not active); in assay [13] it was 2.94 µM (active).

Consider `N#CC(c1cccc(Cl)c1)c1ncc(C(F)(F)F)cc1Cl` (centres undefined), for which the AC50 in [14] was 2.74 µM (active).

In the case of `COC(=O)c1ccc2c(c1)C(C)(C)C(/C=C/c1ccccc1O)=[N+]2C.[I-]`, the EC50 in assay [15] is 584 nM (active); in assay [21] it was 4.69 µM (active); in assay [25] it was 2.75 µM (active); in assay [26], 18.3 µM (active); in the assay on HEK293 [27], 7.83 µM (active). Further, the IC50 in [16] was 21 µM (active); in the assay with HEK293 [18] it was 11.7 µM (inactive); at Nonstructural protein 1 it was 22.7 µM (active); in assay [22], 4.76 µM (active); with HEK293 [23], > 20 µM (inactive); in the assay on HEK293 [24], 5.74 µM (active). The figures for the IC50 (in assay [28]; with MDCK [29]) were 798 nM (active) and 8.58 µM (active), respectively. The CC50 in the assay with Vero [17] was 4.79 µM (active); in the assay with HeLa, 8.49 µM (active); in assay [19], 30.9 µM (active); in the assay on MDCK [20], 5.8 µM (active). Moreover, the “Absolute IC50 (XBP1)” value on X-box-binding protein 1 came out at 10 µM.

The term IC50 denotes the point on the concentration scale where inhibition reaches its midpoint. Usually CC50 stands for the concentration that lowers cell viability or growth by half. In general, EC50 refers to the midpoint of the concentration-response curve. The term AC50 denotes the concentration giving half of the maximal activity seen.
